Inhibition data for one compound are collected here from patent US11058734B2, “Probiotic strains having cholesterol absorbing capacity, methods and uses thereof” (BIOSEARCH, S.A., priority 2014, dated 2021).

The subject of this test is HT-29 enterocytes. The experiment in a line: Fluoresterol absorption by HT-29 enterocytes (flow cytometry). It is filed as cell-based. As to conditions: Homo sapiens, Ezetimibe at maximum effective concentration 300 μM. As for the experimental part: HT-29 enterocytes were obtained from the CIC of the University of Granada (Spain) and cultured in DMEM medium supplemented with a 10% (v/v) of FBS, non-essential amino acids and 2 mM L-glutamine; at 37° C. and 5% (v/v) CO2. Cultures for fluoresterol absorption were grown for 14 days using 96-well plates, incubated for 3-4 h with micelles of fluoresterol and bacterial suspensions at 5·10^8 bacteria/mL, or […] Ezetimibe (MSD-SP Ltd) as positive control. Before fluorocytometric assays, HT-29 cultures were disagreggated by trypsin treatment, the medium and free micelles of fluoresterol removed by centrifugation and enterocytes suspended in PBS buffer.
Micelles of fluoresterol, containing 10 mM sodium taurocholate, 6 mM phosphatidylcholine and 0.2 mM fluoresterol were prepared as described by Sparrow et al. (Sparrow et al., 1999, J Lipid Res 40:1747-57). Fluoresterol absorption by bacteria was analyzed incubating bacterial suspensions (5·10^8 bacteria/mL) with micelles (0.1 mg/mL fluoresterol) in PBS buffer at 37° C. […] Finally, bacteria associated fluorescence was determined in a Tecan Genius microplate reader (485 nm excitation, 535 nm emission filters) or in a Beckton Dickinson FACScalibur flow cytometer. […] Absorbed fluoresterol was quantified based on the data of fluorescence (λex: 488 nm; λem: 530 nm) per cell obtained from 2,000 events in each sample. […]

For the compound `O=C1[C@H](CC[C@H](O)c2ccc(F)cc2)[C@@H](c2ccc(O)cc2)N1c1ccc(F)cc1` [Ezetimibe], testing at 300 µM gave an inhibition of 40%.
